How the values were obtained:
Experiment in all cases: relative viability (nuclei count vs DMSO), 5 days (fraction); higher = more cells survive
UMC-11 = system: UMC-11
In short: (§1)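 Each reported value is a median over duplicate plates. It expresses relative viability: treated-well nuclei count divided by vehicle-well nuclei count. Lung cancer cell lines in 1536-well plates were dosed by pin tool a day after seeding, alone with one drug or with a fixed anchor-drug dose plus five library-drug doses (not always all listed) in √10 steps, and nuclei were counted after 5 days.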

COR-L23 = system: COR-L23
In short: as §1

SW 900 = system: SW 900
In short: as §1

NCI-H1563 = system: NCI-H1563
In short: as §1

HCC-15 = system: HCC-15
In short: as §1

EPLC-272H = system: EPLC-272H
In short: as §1

201T = system: 201T
In short: as §1

NCI-H1650 = system: NCI-H1650
In short: as §1

LOU-NH91 = system: LOU-NH91
In short: as §1

NCI-H647 = system: NCI-H647
In short: as §1

PC-14 = system: PC-14
In short: as §1

H3255 = system: H3255
In short: as §1

NCI-H2170 = system: NCI-H2170
In short: as §1

NCI-H3122 = system: NCI-H3122
In short: as §1

NCI-H322M = system: NCI-H322M
In short: as §1

NCI-H520 = system: NCI-H520
In short: as §1

NCI-H1734 = system: NCI-H1734
In short: as §1

NCI-H2405 = system: NCI-H2405
In short: as §1

NCI-H441 = system: NCI-H441
In short: as §1

NCI-H2347 = system: NCI-H2347
In short: as §1

NCI-H1793 = system: NCI-H1793
In short: as §1

NCI-H2023 = system: NCI-H2023
In short: as §1

Nc1ccn([C@@H]2O[C@H](CO)[C@@H](O)[C@@H]2O)c(=O)n1 [Cytarabine] + N=C(N)NC(=N)NCCc1ccccc1 [Phenformin] (partner 250 µM)
relative viability (UMC-11; first compound 0.005 µM): 0.245
relative viability (UMC-11; first compound 0.01581 µM): 0.232
relative viability (UMC-11; first compound 0.05 µM): 0.205
relative viability (UMC-11; first compound 0.1581 µM): 0.195
relative viability (UMC-11; first compound 0.5 µM): 0.159
relative viability (COR-L23; first compound 0.005 µM): 0.328
relative viability (COR-L23; first compound 0.01581 µM): 0.325
relative viability (COR-L23; first compound 0.05 µM): 0.3
relative viability (COR-L23; first compound 0.1581 µM): 0.146
relative viability (COR-L23; first compound 0.5 µM): 0.137
relative viability (SW 900; first compound 0.005 µM): 0.472
relative viability (SW 900; first compound 0.01581 µM): 0.395
relative viability (SW 900; first compound 0.05 µM): 0.367
relative viability (SW 900; first compound 0.1581 µM): 0.18
relative viability (SW 900; first compound 0.5 µM): 0.155
relative viability (NCI-H1563; first compound 0.005 µM): 0.548
relative viability (NCI-H1563; first compound 0.01581 µM): 0.642
relative viability (NCI-H1563; first compound 0.05 µM): 0.706
relative viability (NCI-H1563; first compound 0.1581 µM): 0.56
relative viability (NCI-H1563; first compound 0.5 µM): 0.567
relative viability (HCC-15; first compound 0.005 µM): 0.454
relative viability (HCC-15; first compound 0.01581 µM): 0.436
relative viability (HCC-15; first compound 0.05 µM): 0.516
relative viability (HCC-15; first compound 0.1581 µM): 0.349
relative viability (HCC-15; first compound 0.5 µM): 0.31
relative viability (EPLC-272H; first compound 0.005 µM): 0.249
relative viability (EPLC-272H; first compound 0.01581 µM): 0.277
relative viability (EPLC-272H; first compound 0.05 µM): 0.26
relative viability (EPLC-272H; first compound 0.1581 µM): 0.147
relative viability (EPLC-272H; first compound 0.5 µM): 0.214
relative viability (201T; first compound 0.005 µM): 0.369
relative viability (201T; first compound 0.01581 µM): 0.432
relative viability (201T; first compound 0.05 µM): 0.428
relative viability (201T; first compound 0.1581 µM): 0.352
relative viability (201T; first compound 0.5 µM): 0.356
relative viability (NCI-H1650; first compound 0.005 µM): 0.386
relative viability (NCI-H1650; first compound 0.01581 µM): 0.263
relative viability (NCI-H1650; first compound 0.05 µM): 0.252
relative viability (NCI-H1650; first compound 0.1581 µM): 0.177
relative viability (NCI-H1650; first compound 0.5 µM): 0.125
relative viability (LOU-NH91; first compound 0.005 µM): 0.732
relative viability (LOU-NH91; first compound 0.01581 µM): 0.75
relative viability (LOU-NH91; first compound 0.05 µM): 0.467
relative viability (LOU-NH91; first compound 0.1581 µM): 0.413
relative viability (LOU-NH91; first compound 0.5 µM): 0.508
relative viability (NCI-H647; first compound 0.005 µM): 0.181
relative viability (NCI-H647; first compound 0.01581 µM): 0.204
relative viability (NCI-H647; first compound 0.05 µM): 0.193
relative viability (NCI-H647; first compound 0.1581 µM): 0.0662
relative viability (NCI-H647; first compound 0.5 µM): 0.0608
relative viability (PC-14; first compound 0.005 µM): 0.499
relative viability (PC-14; first compound 0.01581 µM): 0.316
relative viability (PC-14; first compound 0.05 µM): 0.259
relative viability (PC-14; first compound 0.1581 µM): 0.0817
relative viability (PC-14; first compound 0.5 µM): 0.0908
relative viability (H3255; first compound 0.005 µM): 0.301
relative viability (H3255; first compound 0.01581 µM): 0.336
relative viability (H3255; first compound 0.05 µM): 0.296
relative viability (H3255; first compound 0.1581 µM): 0.25
relative viability (H3255; first compound 0.5 µM): 0.273
relative viability (NCI-H2170; first compound 0.005 µM): 0.328
relative viability (NCI-H2170; first compound 0.01581 µM): 0.321
relative viability (NCI-H2170; first compound 0.05 µM): 0.25
relative viability (NCI-H2170; first compound 0.1581 µM): 0.218
relative viability (NCI-H2170; first compound 0.5 µM): 0.205
relative viability (NCI-H3122; first compound 0.005 µM): 0.347
relative viability (NCI-H3122; first compound 0.01581 µM): 0.323
relative viability (NCI-H3122; first compound 0.05 µM): 0.293
relative viability (NCI-H3122; first compound 0.1581 µM): 0.244
relative viability (NCI-H3122; first compound 0.5 µM): 0.18
relative viability (NCI-H322M; first compound 0.005 µM): 0.704
relative viability (NCI-H322M; first compound 0.01581 µM): 0.614
relative viability (NCI-H322M; first compound 0.05 µM): 0.53
relative viability (NCI-H322M; first compound 0.1581 µM): 0.372
relative viability (NCI-H322M; first compound 0.5 µM): 0.337
relative viability (NCI-H520; first compound 0.005 µM): 0.558
relative viability (NCI-H520; first compound 0.01581 µM): 0.314
relative viability (NCI-H520; first compound 0.05 µM): 0.658
relative viability (NCI-H520; first compound 0.1581 µM): 0.383
relative viability (NCI-H520; first compound 0.5 µM): 0.323
relative viability (NCI-H1734; first compound 0.005 µM): 0.322
relative viability (NCI-H1734; first compound 0.01581 µM): 0.219
relative viability (NCI-H1734; first compound 0.05 µM): 0.191
relative viability (NCI-H1734; first compound 0.1581 µM): 0.155
relative viability (NCI-H1734; first compound 0.5 µM): 0.155
relative viability (NCI-H2405; first compound 0.005 µM): 0.387
relative viability (NCI-H2405; first compound 0.01581 µM): 0.34
relative viability (NCI-H2405; first compound 0.05 µM): 0.288
relative viability (NCI-H2405; first compound 0.1581 µM): 0.238
relative viability (NCI-H2405; first compound 0.5 µM): 0.258
relative viability (NCI-H441; first compound 0.005 µM): 0.79
relative viability (NCI-H441; first compound 0.01581 µM): 0.655
relative viability (NCI-H441; first compound 0.05 µM): 0.783
relative viability (NCI-H441; first compound 0.1581 µM): 0.399
relative viability (NCI-H441; first compound 0.5 µM): 0.298
relative viability (NCI-H2347; first compound 0.005 µM): 0.381
relative viability (NCI-H2347; first compound 0.01581 µM): 0.383
relative viability (NCI-H2347; first compound 0.05 µM): 0.296
relative viability (NCI-H2347; first compound 0.1581 µM): 0.273
relative viability (NCI-H2347; first compound 0.5 µM): 0.291
relative viability (NCI-H1793; first compound 0.005 µM): 0.359
relative viability (NCI-H1793; first compound 0.01581 µM): 0.34
relative viability (NCI-H1793; first compound 0.05 µM): 0.284
relative viability (NCI-H1793; first compound 0.1581 µM): 0.251
relative viability (NCI-H1793; first compound 0.5 µM): 0.216
relative viability (NCI-H2023; first compound 0.005 µM): 0.287
relative viability (NCI-H2023; first compound 0.01581 µM): 0.224
relative viability (NCI-H2023; first compound 0.05 µM): 0.183
relative viability (NCI-H2023; first compound 0.1581 µM): 0.0883
relative viability (NCI-H2023; first compound 0.5 µM): 0.0962
